Reference: patent publication US7214673B2, “Piperazine substituted aryl benzodiazepines and their use as dopamine receptor antagonists for the treatment of psychotic disorders” (Eli Lilly and Company, priority 2002, dated 2007)
Where a name gives a salt, the structure may show the parent alone.

Target: T1, Dopamine D2 receptor (Homo sapiens, UniProt P14416)
T1 construct: purchased Receptor Biology (now owned by NEN) RBHD2CM
Test: Dopamine D2 receptor binding assay ([125I]iodospiperone)
Details: [125I]iodospiperone 0.1 nM, D2 receptor membranes, 2 hours at room temperature; read-out: Relative D2 Receptor Binding Affinity Ki
Protocol: Serotonin 5-HT6 and Dopamine D2 Binding Assay Protocol
The assay buffers used are 50 mM Tris-HCl pH 7.4, 120 mM NaCl, 5 mM KCl, 5 mM MgCl2, 1 mM EDTA for the Dopamine D2s receptor binding assay. […] The membranes used are from Receptor Biology (now owned by NEN), Cat #RBHD2CM for the D2 receptor.
Compounds are obtained as 10 mM stocks in 100% DMSO. They are diluted to 1 mM in 100% DMSO by adding 180 μL DMSO to 20 μL of stock in 96 well plates using a multidrop. […] This is done using a TECAN robot.
The radioligand is diluted in assay buffer to provide 0.1 nM for the D2 assay. Each vial of membranes is diluted up to 92 mL in assay buffer. The final assay volume is 250 μL consisting of 210 μl of diluted membranes, 20 μL of compound or 10% DMSO for total binding, and 20 μL of diluted radioligand. The compounds are transferred from drug dilution plates into coming 96 well assay plates using a 96 well Multimek pipettor. Radioligand and membranes are added to assay plates using multidrop pipettors. Non-specific binding is determined in wells containing a final concentration of 5 μM haloperidol. The final drug concentration range in half logs is from 10 μM down to 0.1 nM.
After addition of drug, membrane, and ligand, the plates are incubated for 2 hours at room temperature. During this time 96 well Millipore filter plates (MAFBNOB50) are soaked for a least 30 minutes with 200 μL per well of 0.5% polyethyleneimine.
The 0.5% PEI is removed from filterplate wells using a TiterTek MAP aspirator and 200 μL of the incubation mixture is transferred from the incubation plate to the filterplate after mixing. This transfer is done using the 96 tip Mutimek pipettor. After transfer to the filterplate filterplates are extracted and ished twice with 220 μL per well of cold buffer on the MAP aspirator. The peel away bottoms are removed from the filterplates and 60 μL per well of microscint 20 scintillation fluid is added per well using a multidrop. Plates are placed into suitable holders and are left at room temperature for 3 hours and are counted for ^3H in either a Wallac Microbeta counter or on a Packard Topcount.

T1 sequence (P14416 1-414 isoform P14416-2): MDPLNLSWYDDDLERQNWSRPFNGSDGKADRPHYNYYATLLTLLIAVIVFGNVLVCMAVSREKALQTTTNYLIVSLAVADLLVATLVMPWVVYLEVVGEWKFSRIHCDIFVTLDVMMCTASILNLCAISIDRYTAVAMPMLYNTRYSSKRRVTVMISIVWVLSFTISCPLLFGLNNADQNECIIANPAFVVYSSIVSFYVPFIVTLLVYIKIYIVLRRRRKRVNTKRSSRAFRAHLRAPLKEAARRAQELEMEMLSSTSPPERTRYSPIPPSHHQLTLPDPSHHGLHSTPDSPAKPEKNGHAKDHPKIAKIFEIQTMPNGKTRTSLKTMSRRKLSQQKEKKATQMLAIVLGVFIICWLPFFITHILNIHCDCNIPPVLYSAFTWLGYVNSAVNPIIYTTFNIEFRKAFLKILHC

**Q.** Which Ki does the source give for `Cc1cc2c(s1)Nc1ccccc1N=C2N1CCN[C@@H](Cc2cccc(Cl)c2)C1` [Example 87] here?
**A.** 10 to 100 nM

**Q.** For `Cc1cc2c(s1)Nc1ccccc1N=C2N1CCN[C@@H](Cc2cc(F)cc(F)c2)C1` [Example 88], which Ki is on record?
**A.** < 10 nM

**Q.** Which Ki does the source give for `Cc1cc2c(s1)Nc1ccccc1N=C2N1CCN(C)[C@@H](Cc2cccc(Cl)c2)C1` [Example 119] here?
**A.** 10 to 100 nM

**Q.** For `Cc1cc2c(s1)Nc1ccccc1N=C2N1CCN[C@@H](CCc2ccc(F)cc2)C1` [Example 176, 10-((S)-3-(2-(4-Fluorophenyl)-ethyl)-piperazin-1-yl)-2-methyl-4H-3-thia-4,9-diaza-benzo[f]azulene dihydrochloride], which Ki is on record?
**A.** 10 to 100 nM

**Q.** For `Cc1cc2c(s1)Nc1ccccc1N=C2N1CCN[C@@H](CCc2cccc(F)c2)C1` [Example 177, 10-((S)-3-(2-(3-Fluoro-phenyl)-ethyl)-piperazin-1-yl))-2-methyl-4H-3-thia-4,9-diaza-benzo[f]azulene dihydrochloride], which Ki is on record?
**A.** 10 to 100 nM

**Q.** For `Cc1cc2c(s1)Nc1ccccc1N=C2N1CCN[C@@H](CCc2ccccc2F)C1` [Example 178, 10-((S)-3-(2-(2-Fluoro-phenyl)-ethyl)-piperazin-1-yl)-2-methyl-4H-3-thia-4,9-diaza-benzo[f]azulene dihydrochloride], which Ki is on record?
**A.** 10 to 100 nM

**Q.** Which Ki does the source give for `COc1ccc(CC[C@H]2CN(C3=Nc4ccccc4Nc4sc(C)cc43)CCN2)cc1` [Example 179, 10-((S)-3-(2-(4-methoxy-phenyl)-ethyl)-piperazin-1-yl)-2-methyl-4H-3-thia-4,9-diaza-benzo[f]azulene dihydrochloride] here?
**A.** < 10 nM

**Q.** Which Ki does the source give for `COc1cccc(CC[C@H]2CN(C3=Nc4ccccc4Nc4sc(C)cc43)CCN2)c1` [Example 180, 10-((S)-3-(2-(3-Methoxy-phenyl)-ethyl)-piperazin-1-yl)-2-methyl-4H-3-thia-4,9-diaza-benzo[f]azulene dihydrochloride] here?
**A.** < 10 nM

**Q.** For `COc1ccccc1CC[C@H]1CN(C2=Nc3ccccc3Nc3sc(C)cc32)CCN1` [Example 181, 10-((S)-3-(2-(2-Methoxy-phenyl)-ethyl)-piperazin-1-yl)-2-methyl-4H-3-thia-4,9-diaza-benzo[f]azulene dihydrochloride], which Ki is on record?
**A.** 10 to 100 nM

**Q.** For `Cc1cc2c(s1)Nc1ccccc1N=C2N1CCN(C)[C@@H](CCc2ccc(F)cc2)C1` [Example 182, 10-((S)-3-(2-(4-Fluoro-phenyl)-ethyl]-4-methyl-piperazin-1-yl)-2-methyl-4H-3-thia-4,9-diaza-benzo[f]azulene dihydrochloride], which Ki is on record?
**A.** 10 to 100 nM

**Q.** Which Ki does the source give for `Cc1cc2c(s1)Nc1ccccc1N=C2N1CCN(C)[C@@H](CCc2cccc(F)c2)C1` [Example 183, 10-((S)-3-(2-(3-Fluoro-phenyl)-ethyl)-4-methyl-piperazin-1-yl)-2-methyl-4H-3-thia-4,9-diaza-benzo[f]azulene dihydrochloride] here?
**A.** 10 to 100 nM

**Q.** For `Cc1cc2c(s1)Nc1ccccc1N=C2N1CCN(C)[C@@H](CCc2ccccc2F)C1` [Example 184, 10-((S)-3-(2-(2-Fluoro-phenyl)-ethyl)-4-methyl-piperazin-1-yl)-2-methyl-4H-3-thia-4,9-diaza-benzo[f]azulene dihydrochloride], which Ki is on record?
**A.** 10 to 100 nM

Test system: not given
Test: not given
Details: not given

**Q.** Which melting point does the source give for `Cc1cc2c(s1)Nc1ccccc1N=C2N1CCN(C)[C@@H](CCc2cccc(Cl)c2)C1` [Example 391, 10-((S)-3-[2-(3-Chloro-phenyl)-ethyl]-4-methyl-piperazin-1-yl)-2-methyl-4H-3-thia-4,9-diaza-benzo[f]azulene] here?
**A.** 69 °C (dec.)

**Q.** Which melting point does the source give for `Cc1cc2c(s1)Nc1ccccc1N=C2N1CCN(C)[C@@H](CCc2ccccc2Cl)C1` [Example 392, 10-((S)-3-[2-(2-Chloro-phenyl)-ethyl]-4-methyl-piperazin-1-yl)-2-methyl-4H-3-thia-4,9-diaza-benzo[f]azulene] here?
**A.** 72 °C (dec.)

**Q.** With `Cc1cc2c(s1)Nc1ccccc1N=C2N1CCN[C@@H](CCc2ccc(C(F)(F)F)cc2)C1` [Example 393, 10-((S)-3-[2-(4-Trifluoromethyl-phenyl)-ethyl]-piperazin-1-yl)-2-methyl-4H-3-thia-4,9-diaza-benzo[f]azulene] as the compound, how does the melting point read?
**A.** 78 °C (dec.)

**Q.** Which melting point does the source give for `Cc1cc2c(s1)Nc1ccccc1N=C2N1CCN[C@@H](CCc2ccccc2C(F)(F)F)C1` [Example 394, 10-((S)-3-[2-(2-Trifluoromethyl-phenyl)-ethyl]-piperazin-1-yl)-2-methyl-4H-3-thia-4,9-diaza-benzo[f]azulene] here?
**A.** 73 °C (dec.)

**Q.** With `Cc1cc2c(s1)Nc1ccccc1N=C2N1CCN[C@@H](CCc2cccc(C(F)(F)F)c2)C1` [Example 395, 10-((S)-3-[2-(3-Trifluoromethyl-phenyl)-ethyl]-piperazin-1-yl)-2-methyl-4H-3-thia-4,9-diaza-benzo[f]azulene] as the compound, how does the melting point read?
**A.** 69 °C (dec.)

**Q.** For `Cc1cc2c(s1)Nc1ccccc1N=C2N1CCN(C)[C@@H](CCc2ccc(C(F)(F)F)cc2)C1` [Example 396, 10-((S)-3-[2-(4-Trifluoromethyl-phenyl)-ethyl]-4-methyl-piperazin-1-yl)-2-methyl-4H-3-thia-4,9-diaza-benzo[f]azulene], which melting point is on record?
**A.** 72 °C (dec.)

**Q.** For `Cc1cc2c(s1)Nc1ccccc1N=C2N1CCN(C)[C@@H](CCc2ccccc2C(F)(F)F)C1` [Example 397, 10-((S)-3-[2-(2-Trifluoromethyl-phenyl)-ethyl]-4-methyl-piperazin-1-yl)-2-methyl-4H-3-thia-4,9-diaza-benzo[f]azulene], which melting point is on record?
**A.** 68 °C (dec.)

**Q.** For `Cc1cc2c(s1)Nc1ccccc1N=C2N1CCN[C@@H](CCc2ccc(F)cc2F)C1` [Example 399, 10-((S)-3-[2-(2,4-Difluoro-phenyl)-ethyl]-piperazin-1-yl)-2-methyl-4H-3-thia-4,9-diaza-benzo[f]azulene], which melting point is on record?
**A.** 69 °C (dec.)

**Q.** With `CC(C)(C)c1cc2c(s1)Nc1ccccc1N=C2N1CCN[C@@H](CCc2ccccc2)C1` [Example 445, (S)-2-tert-Butyl-10-(3-phenethyl-piperazin-1-yl)-4H-3-thia-4,9-diaza-benzo[f]azulene] as the compound, how does the melting point read?
**A.** 93 to 96 °C

**Q.** For `Cc1nc2c(s1)Nc1ccccc1N=C2N1CCN[C@@H](Cc2ccccc2)C1` [Example 462], which melting point is on record?
**A.** 250 to 252 °C

**Q.** Which melting point does the source give for `Cc1ccc2c(c1)Nc1ccccc1N=C2N1CCN(C)CC1` [Example 574, 3-Methyl-11-(4-methyl-piperazin-1-yl)-3-methyl-5H-dibenzo[b,e][1,4]diazepine] here?
**A.** 84 °C (dec.)

**Q.** Which melting point does the source give for `Cc1ccc2c(c1)Nc1ccccc1N=C2N1CCN[C@@H](CCc2ccccc2)C1` [Example 575, 3-Methyl-11-[(S)-3-phenethyl-piperazin-1-yl]-5H-dibenzo[b,e][1,4]diazepine] here?
**A.** 64 to 80 °C

**Q.** For `Cc1ccc2c(c1)Nc1ccccc1N=C2N1CCN(C)[C@@H](CCc2ccccc2)C1` [Example 576, 3-Methyl-11-[4-methyl-(S)-3-phenethyl-piperazin-1-yl]-5H-dibenzo[b,e][1,4]diazepine], which melting point is on record?
**A.** 65 °C (dec.)

**Q.** Which melting point does the source give for `Cc1ccc2c(c1)Nc1ccccc1N=C2N1CCN[C@@H](CCc2cccc(F)c2)C1` [Example 577, 11-{(S)-3-[2-(3-Fluoro-phenyl)-ethyl]-piperazin-1-yl}-3-methyl-5H-dibenzo[b,e][1,4]diazepine] here?
**A.** 81 °C (dec.)

**Q.** For `Cc1ccc2c(c1)Nc1ccccc1N=C2N1CCN(C)[C@@H](CCc2cccc(F)c2)C1` [Example 578, 11-{(S)-3-[2-(3-Fluoro-phenyl)-ethyl]-4-methyl-piperazin-1-yl}-3-methyl-5H-dibenzo[b,e][1,4]diazepine], which melting point is on record?
**A.** 63 °C (dec.)

**Q.** For `Cc1ccc2c(c1)C(N1CCN(C)CC1)=Nc1ccccc1N2` [Example 579], which melting point is on record?
**A.** 170 to 177 °C (dec.)

**Q.** Which melting point does the source give for `Cc1ccc2c(c1)C(N1CCN[C@@H](CCc3ccccc3)C1)=Nc1ccccc1N2` [Example 580, 2-Methyl-11-[(S)-3-phenethyl-piperazin-1-yl]-5H-dibenzo[b,e][1,4]diazepine] here?
**A.** 67 °C (dec.)

**Q.** For `Cc1ccc2c(c1)C(N1CCN(C)[C@@H](CCc3ccccc3)C1)=Nc1ccccc1N2` [Example 581, 2-Methyl-11-[4-methyl-(S)-3-phenethyl-piperazin-1-yl]-5H-dibenzo[b,e][1,4]diazepine], which melting point is on record?
**A.** 65 °C (dec.)

**Q.** With `Clc1ccc2c(c1)N=C(N1CCN[C@@H](Cc3ccccc3)C1)c1ccccc1N2` [Example 585, 11-(3-(S)-Benzyl-piperazin-1-yl)-8-chloro-5H-dibenzo[b,e][1,4]diazepine] as the compound, how does the melting point read?
**A.** 79 to 92 °C

**Q.** Which melting point does the source give for `CN1CCN(C2=Nc3ccccc3Nc3ccc(C(F)(F)F)cc32)CC1` [Example 606, 11-(4-Methyl-piperazin-1-yl)-2-trifluoromethyl-5H-dibenzo[b,e][1,4]diazepine] here?
**A.** 68 to 72 °C
